Holding throughout (assay type): biochemical
Experiment [1] concerns the target T1, Recombinant Human Anaplastic Lymphoma Kinase (Homo sapiens, UniProt Q9UM73).
T1 construct: purchased Invitrogen, Carlsbad, Calif
Kind of experiment: ALK HTRF kinase assay. The method, boiled down: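 Biotinylated peptide substrate, recombinant human ALK; detection via europium-chelate antibody to phosphotyrosine paired with streptavidin-APC. Potency expressed as IC50 from four-parameter curve fitting.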

Experiment [2] deals with T2, human JAK1 (a.a. 837-1142) (Homo sapiens, UniProt P23458).
T2 construct: human JAK1 (a.a. 837-1142); His tag (N); made in house; host or cells: insect cells (baculovirus)
Kind of experiment: In vitro JAK kinase assay (HTRF, phosphorylation of a biotinylated peptide), JAK1. The following applies: read-out: JAK1 IC50. A digest of the protocol: (§1)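 Phosphorylation of a biotinylated peptide by the JAK kinase domain, detected by HTRF with Eu-Py20 and SA-APC. ATP was 90 μM for JAK1, 30 μM for JAK2 and 3 μM for JAK3. Reactions ran 1 h at room temperature and were stopped with EDTA, followed by 40 min antibody binding.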
Background: Time-resolved FRET reads energy transfer from a long-lived donor to a nearby acceptor.

Experiment [3] concerns the target T3, human JAK3 (a.a. 781-1124) (Homo sapiens, UniProt P52333).
T3 construct: JAK3 (a.a. 781-1124); His tag (N); made in house; host or cells: insect cells (baculovirus)
Kind of experiment: In vitro JAK kinase assay (HTRF, phosphorylation of a biotinylated peptide), JAK3. A digest of the protocol: as §1

The target of the next experiment is TYK2 (Homo sapiens, UniProt P29597). Kind of experiment: TYK2 kinase inhibition (Table A1).
Experiment [4] has as its target T4, human JAK2 (a.a. 828-1132) (Homo sapiens, UniProt O60674).
T4 construct: JAK2 (a.a. 828-1132); His tag (N); made in house; host or cells: insect cells (baculovirus)
Kind of experiment: In vitro JAK kinase assay (HTRF, phosphorylation of a biotinylated peptide), JAK2. A digest of the protocol:
as §1

Where [5] appears, read: compound at a concentration of 500 nM or 1 mM (not specified), cells shown as percentage.
[6] abbreviates: compound at 500 nM or 1 mM, 90 μM ATP.
Where [7] appears, read: method AA1 (90 μM ATP) or AA2 (1000 μM ATP), not stated per value.
Setting [8] is: method AA1 (3 μM ATP) or AA2 (1000 μM ATP), not stated per value.
The mark [9] stands for this setting: method AA1 (30 μM ATP) or AA2 (1000 μM ATP), not stated per value.
Where [10] appears, read: Table B1, cells without percent sign.

The structures appear in SMILES notation. Structures can show the parent of a compound that is named as a salt. Where two headings read alike, the source gives them in different places.

TYK2, sequence (P29597 whole entry): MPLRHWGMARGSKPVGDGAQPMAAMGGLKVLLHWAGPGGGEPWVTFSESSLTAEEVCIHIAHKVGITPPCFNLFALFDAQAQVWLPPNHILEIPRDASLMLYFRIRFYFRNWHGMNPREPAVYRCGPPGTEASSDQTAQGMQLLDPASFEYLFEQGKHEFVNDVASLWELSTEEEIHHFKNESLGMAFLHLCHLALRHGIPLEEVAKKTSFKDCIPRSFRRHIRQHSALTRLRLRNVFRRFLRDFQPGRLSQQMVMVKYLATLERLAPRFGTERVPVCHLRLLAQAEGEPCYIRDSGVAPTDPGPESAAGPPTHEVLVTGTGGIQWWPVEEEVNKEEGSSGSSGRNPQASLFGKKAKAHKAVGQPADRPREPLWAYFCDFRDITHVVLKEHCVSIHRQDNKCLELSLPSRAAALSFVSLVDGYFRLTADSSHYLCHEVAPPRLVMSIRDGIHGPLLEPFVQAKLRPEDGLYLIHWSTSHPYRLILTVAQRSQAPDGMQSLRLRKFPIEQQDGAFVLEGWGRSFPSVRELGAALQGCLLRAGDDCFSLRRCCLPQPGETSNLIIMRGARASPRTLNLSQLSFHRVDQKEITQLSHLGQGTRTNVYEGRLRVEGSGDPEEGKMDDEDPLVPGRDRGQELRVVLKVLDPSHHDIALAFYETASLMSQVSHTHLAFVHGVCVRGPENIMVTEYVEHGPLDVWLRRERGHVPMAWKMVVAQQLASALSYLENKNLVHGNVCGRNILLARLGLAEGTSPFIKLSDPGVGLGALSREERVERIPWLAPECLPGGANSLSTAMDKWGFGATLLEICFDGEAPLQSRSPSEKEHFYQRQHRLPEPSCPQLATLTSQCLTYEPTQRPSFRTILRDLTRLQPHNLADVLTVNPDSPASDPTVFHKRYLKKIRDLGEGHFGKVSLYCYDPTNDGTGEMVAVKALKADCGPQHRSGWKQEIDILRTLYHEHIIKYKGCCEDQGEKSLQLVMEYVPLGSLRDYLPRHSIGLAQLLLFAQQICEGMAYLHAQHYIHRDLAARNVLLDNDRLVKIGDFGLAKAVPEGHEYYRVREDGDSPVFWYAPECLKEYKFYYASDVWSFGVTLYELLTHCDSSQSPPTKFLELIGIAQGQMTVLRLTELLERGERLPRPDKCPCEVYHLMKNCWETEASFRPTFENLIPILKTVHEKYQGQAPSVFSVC
T4 sequence (O60674 828-1132): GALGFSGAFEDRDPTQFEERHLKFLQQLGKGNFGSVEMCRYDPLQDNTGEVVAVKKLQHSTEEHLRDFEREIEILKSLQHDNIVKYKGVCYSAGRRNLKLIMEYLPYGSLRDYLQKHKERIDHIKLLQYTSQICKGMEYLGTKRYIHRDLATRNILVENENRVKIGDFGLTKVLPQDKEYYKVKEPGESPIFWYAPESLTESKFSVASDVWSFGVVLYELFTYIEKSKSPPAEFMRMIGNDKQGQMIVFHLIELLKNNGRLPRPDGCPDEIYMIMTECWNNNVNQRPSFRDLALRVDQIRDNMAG
T1 sequence (Q9UM73 19-1620): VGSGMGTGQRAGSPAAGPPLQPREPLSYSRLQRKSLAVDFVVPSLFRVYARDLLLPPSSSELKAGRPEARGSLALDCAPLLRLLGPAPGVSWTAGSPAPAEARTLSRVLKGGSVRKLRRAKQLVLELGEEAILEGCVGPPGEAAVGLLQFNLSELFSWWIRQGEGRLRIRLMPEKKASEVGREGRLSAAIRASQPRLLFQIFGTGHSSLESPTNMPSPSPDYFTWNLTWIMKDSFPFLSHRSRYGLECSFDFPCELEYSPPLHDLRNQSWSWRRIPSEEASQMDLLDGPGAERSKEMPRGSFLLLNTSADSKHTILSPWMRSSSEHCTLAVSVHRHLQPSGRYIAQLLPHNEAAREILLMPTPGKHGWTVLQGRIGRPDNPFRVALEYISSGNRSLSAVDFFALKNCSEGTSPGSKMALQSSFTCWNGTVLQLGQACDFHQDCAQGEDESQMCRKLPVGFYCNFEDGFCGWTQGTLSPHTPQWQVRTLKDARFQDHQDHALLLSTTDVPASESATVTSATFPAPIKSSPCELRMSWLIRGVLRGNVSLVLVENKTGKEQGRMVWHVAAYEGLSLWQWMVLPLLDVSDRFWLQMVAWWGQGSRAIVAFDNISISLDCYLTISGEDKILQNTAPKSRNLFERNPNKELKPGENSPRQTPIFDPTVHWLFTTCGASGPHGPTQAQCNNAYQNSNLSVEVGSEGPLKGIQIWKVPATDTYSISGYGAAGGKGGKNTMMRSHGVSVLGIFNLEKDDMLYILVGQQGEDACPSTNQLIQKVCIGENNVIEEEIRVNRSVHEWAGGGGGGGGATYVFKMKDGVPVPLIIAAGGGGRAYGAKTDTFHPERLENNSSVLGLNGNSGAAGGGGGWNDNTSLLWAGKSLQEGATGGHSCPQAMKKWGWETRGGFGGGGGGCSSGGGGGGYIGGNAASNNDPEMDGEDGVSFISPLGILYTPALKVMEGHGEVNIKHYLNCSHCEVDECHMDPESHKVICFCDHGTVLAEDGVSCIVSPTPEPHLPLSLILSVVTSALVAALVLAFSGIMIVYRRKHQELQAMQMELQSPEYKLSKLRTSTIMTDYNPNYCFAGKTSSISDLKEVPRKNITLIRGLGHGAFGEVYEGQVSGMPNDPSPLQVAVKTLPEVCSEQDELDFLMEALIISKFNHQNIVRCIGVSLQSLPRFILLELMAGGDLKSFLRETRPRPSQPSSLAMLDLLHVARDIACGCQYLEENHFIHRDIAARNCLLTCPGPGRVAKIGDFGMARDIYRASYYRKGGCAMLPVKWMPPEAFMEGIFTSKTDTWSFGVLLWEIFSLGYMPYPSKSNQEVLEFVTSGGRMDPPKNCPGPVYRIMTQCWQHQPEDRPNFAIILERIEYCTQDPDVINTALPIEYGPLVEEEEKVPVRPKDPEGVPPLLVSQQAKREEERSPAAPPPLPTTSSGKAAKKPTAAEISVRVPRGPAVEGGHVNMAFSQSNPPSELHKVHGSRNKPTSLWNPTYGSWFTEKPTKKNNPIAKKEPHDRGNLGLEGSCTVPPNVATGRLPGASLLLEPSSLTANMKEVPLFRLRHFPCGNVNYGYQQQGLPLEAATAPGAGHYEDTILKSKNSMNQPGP
T2 sequence (P23458 849-1154): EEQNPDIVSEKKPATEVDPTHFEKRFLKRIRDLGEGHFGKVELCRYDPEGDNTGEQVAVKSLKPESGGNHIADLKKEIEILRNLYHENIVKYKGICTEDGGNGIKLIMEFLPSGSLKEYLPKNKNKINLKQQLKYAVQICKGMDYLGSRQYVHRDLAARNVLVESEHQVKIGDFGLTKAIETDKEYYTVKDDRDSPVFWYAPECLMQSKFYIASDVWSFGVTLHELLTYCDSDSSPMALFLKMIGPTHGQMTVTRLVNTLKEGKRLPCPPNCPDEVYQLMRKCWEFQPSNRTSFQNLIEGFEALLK
T3 sequence (P52333 781-1124): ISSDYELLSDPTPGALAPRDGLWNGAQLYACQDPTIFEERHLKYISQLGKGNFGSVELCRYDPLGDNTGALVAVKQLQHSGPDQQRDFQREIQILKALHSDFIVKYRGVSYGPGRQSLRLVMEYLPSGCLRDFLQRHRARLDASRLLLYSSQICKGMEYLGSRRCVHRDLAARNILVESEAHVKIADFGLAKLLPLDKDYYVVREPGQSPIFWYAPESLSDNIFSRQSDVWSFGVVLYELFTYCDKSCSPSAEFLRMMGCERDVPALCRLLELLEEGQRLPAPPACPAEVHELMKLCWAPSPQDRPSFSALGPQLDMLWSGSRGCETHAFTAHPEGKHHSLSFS

With `CS(=O)(=O)N1CCN(c2cc(-c3cc4cc(c3)Nc3ncc(Cl)c(n3)Nc3cccc(c3)OCC4)ccn2)CC1` [Example D36, 6-Chloro-19-{2-[4-(methylsulfonyl)piperazin-1-yl]pyridin-4-yl}-14-oxa-2,4,8,23-tetraazatetracyclo[15.3.1.1(3,7).1(9,13)]tricosa-1(21),3(23),4,6,9(22),10,12,17,19-nonaene bis(trifluoroacetate)], the half-maximal inhibitory concentration (IC50) worked out at 0.225 µM in experiment [1] (Table D1, 90 μM ATP); 0.0013 µM in experiment [2] (Table D1); 0.0049 µM in experiment [3] (Table D1); 0.0049 µM against TYK2 (Table D1); 0.0004 µM in experiment [4] (Table D1).
For `COc1ccccc1NC(=O)Nc1ccc2cc1CCc1cccc(c1)Nc1ncc(Cl)c(n1)N2` [Example B102, N-[6-Chloro-2,4,8,22-tetraazatetracyclo[14.3.1.1(3,7).1(9,13)]docosa-1(20), 3(22),4,6,9(21),10,12,16,18-nonaen-12-yl]-N′-(2-methoxyphenyl)urea trifluoroacetate], the “ALK % of inhibition at a concentration of 500 nM or 1 mM” value (shortened to “ALK % of inhibition”) in experiment [1] (setting [5]) was found to be 54%. Further, the IC50 in experiment [2] (Table B1) worked out at 0.002 µM; in experiment [3] (Table B1) it was 0.033 µM; on TYK2 (Table B1), 0.0089 µM; in experiment [4] (Table B1), 0.0038 µM.
In the case of `CSc1ccccc1NC(=O)Nc1ccc2cc1CCc1cccc(c1)Nc1ncc(Cl)c(n1)N2` [Example B107, N-[6-Chloro-2,4,8,22-tetraazatetracyclo[14.3.1.1(3,7).1(9,13)]docosa-1(20), 3(22),4,6,9(21),10,12,16,18-nonaen-12-yl]-N′-[2-(methylthio)phenyl]urea trifluoroacetate], in experiment [1] (setting [5]), the “ALK % of inhibition” value came to 9.3%. In addition, the IC50 was found to be 0.00062 µM in experiment [2] (Table B1), 0.016 µM in experiment [3] (Table B1), 0.0068 µM at TYK2 (Table B1) and 0.0023 µM in experiment [4] (Table B1).
The corresponding values for `O=C(Nc1ccc2cc1CCc1cccc(c1)Nc1ncc(Cl)c(n1)N2)N[C@H]1CCN(C(=O)C2CC2)C1` [Example B228, N-[6-Chloro-2,4,8,22-tetraazatetracyclo[14.3.1.1(3,7).1(9,13)]docosa-1(20),3(22),4,6,9(21),10,12,16,18-nonaen-12-yl]-N′-[(3S)-1-(cyclopropylcarbonyl)pyrrolidin-3-yl]urea trifluoroacetate] are 10%, 0.006 µM, 0.063 µM, 0.019 µM and 0.011 µM.
With `O=C(CC1CCN(c2ccnc(F)c2)CC1)Nc1ccc2cc1CCc1cncc(c1)Nc1ncc(Cl)c(n1)N2` [Example A244, N-[6-Chloro-2,4,8,18,22-pentaazatetracyclo[14.3.1.1(3,7).1(9,13)]docosa-1(20),3(22),4,6,9(21),10,12,16,18-nonaen-12-yl]-2-[1-(2-fluoropyridin-4-yl)piperidin-4-yl]acetamide tris(trifluoroacetate)], the “ALK % of inhibition” value in experiment [1] (setting [6]) stood at 66%. Besides, the concentration for half-maximal inhibition (IC50) in experiment [2] (setting [7]) is 0.03 µM; in experiment [3] (setting [8]), > 0.4 µM; against TYK2, 0.17 µM; in experiment [4] (setting [9]), 0.171 µM.
On to `CCCS(=O)(=O)Nc1ccc2cc1CCc1cccc(c1)Nc1ncc(Cl)c(n1)N2` [Example B142, N-[6-Chloro-2,4,8,22-tetraazatetracyclo[14.3.1.1(3,7).1(9,13)]docosa-1(20), 3(22),4,6,9(21),10,12,16,18-nonaen-12-yl]propane-1-sulfonamide trifluoroacetate], for which the IC50 turned out to be 0.99 µM in experiment [1] (setting [10]); 0.00085 µM in experiment [2] (Table B1); 0.0046 µM in experiment [3] (Table B1); 0.0015 µM against TYK2 (Table B1); 0.00031 µM in experiment [4] (Table B1).
Turning to `Cn1ccc(C(=O)N2CCC(CC(=O)Nc3ccc4cc3CCc3cncc(c3)Nc3ncc(Cl)c(n3)N4)CC2)n1` [Example A130, N-[6-Chloro-2,4,8,18,22-pentaazatetracyclo[14.3.1.1(3,7).1(9,13)]docosa-1(20),3(22),4,6,9(21),10,12,16,18-nonaen-12-yl]-2-{1-[(1-methyl-1H-pyrazol-3-yl)carbonyl]piperidin-4-yl}acetamide bis(trifluoroacetate)], the “ALK % of inhibition” value in experiment [1] (setting [6]) worked out at 26%. In addition, the IC50 in experiment [2] (setting [7]) was 0.0012 µM; in experiment [3] (setting [8]), 0.203 µM; against TYK2 it was 0.0048 µM; in experiment [4] (setting [9]), 0.0092 µM.
For `Cc1nc(C)c(S(=O)(=O)N2CCC(CC(=O)Nc3ccc4cc3CCc3cncc(c3)Nc3ncc(Cl)c(n3)N4)CC2)s1` [Example A232, N-[6-Chloro-2,4,8,18,22-pentaazatetracyclo[14.3.1.1(3,7).1(9,13)]docosa-1(20),3(22),4,6,9(21),10,12,16,18-nonaen-12-yl]-2-{1-[(2,4-dimethyl-1,3-thiazol-5-yl)sulfonyl]piperidin-4-yl}acetamide bis(trifluoroacetate)] the same measures were 43%, 0.012 µM, > 0.4 µM, 0.326 µM and 0.094 µM.
For the compound `O=C(Nc1ccc2cc1CCc1cccc(c1)Nc1ncc(Cl)c(n1)N2)c1ccno1` [Example B53, N-[6-Chloro-2,4,8,22-tetraazatetracyclo[14.3.1.1(3,7).1(9,13)]docosa-1(20), 3(22),4,6,9(21),10,12,16,18-nonaen-12-yl]isoxazole-5-carboxamide trifluoroacetate], the 50% inhibitory concentration (IC50) in experiment [1] (setting [10]) worked out at 0.72 µM; in experiment [2] (Table B1) it was 0.0028 µM; in experiment [3] (Table B1), 0.017 µM; at TYK2 (Table B1) it was 0.008 µM; in experiment [4] (Table B1), 0.0023 µM.
For `O=C(CC1CCN(c2ncc(F)cn2)CC1)Nc1ccc2cc1CCc1cncc(c1)Nc1ncc(Cl)c(n1)N2` [Example A169, N-[6-Chloro-2,4,8,18,22-pentaazatetracyclo[14.3.1.1(3,7).1(9,13)]docosa-1(20),3(22),4,6,9(21),10,12,16,18-nonaen-12-yl]-2-[1-(5-fluoropyrimidin-2-yl)piperidin-4-yl]acetamide tris(trifluoroacetate)], the “ALK % of inhibition” value in experiment [1] (setting [6]) is 23%. The IC50 in experiment [2] (setting [7]) was 0.026 µM; in experiment [3] (setting [8]), > 1 µM; at TYK2 it was 0.319 µM; in experiment [4] (setting [9]) it was 0.131 µM.
For the compound `O=C(Nc1cc2cc(c1)Nc1nc(ncc1Cl)Nc1cccc(c1)CC2)c1nc2ccccc2s1` [Example B204, N-[6-Chloro-2,4,8,22-tetraazatetracyclo[14.3.1.1(3,7).1(9,13)]docosa-1(20),3(22),4,6,9(21),10,12,16,18-nonaen-11-yl]-1,3-benzothiazole-2-carboxamide trifluoroacetate], the IC50 in experiment [1] (setting [10]) was > 10 µM; in experiment [2] (Table B1), > 1 µM; in experiment [3] (Table B1), > 1 µM; against TYK2 (Table B1) it was > 1 µM; in experiment [4] (Table B1) it was 0.5 µM.
As to `Nc1cc2cc(c1)Nc1nc(ncc1Cl)Nc1cccc(c1)CC2` [Example B21, 6-Chloro-2,4,8,22-tetraazatetracyclo[14.3.1.1(3,7).1(9,13)]docosa-1(20),3(22),4,6,9(21),10,12,16,18-nonaen-11-amine bis(trifluoroacetate)], the IC50 in experiment [1] (setting [10]) was determined as 1.5 µM; in experiment [2] (Table B1) it was 0.018 µM; in experiment [3] (Table B1) it was 0.021 µM; against TYK2 (Table B1) it was 0.032 µM; in experiment [4] (Table B1), 0.0063 µM.
For the compound `O=C(Nc1ccc2cc1CCc1cncc(c1)Nc1ncc(Cl)c(n1)N2)N1CCN(Cc2ccccc2)CC1` [Example B287, 4-Benzyl-N-[6-chloro-2,4,8,18,22-pentaazatetracyclo[14.3.1.1(3,7).1(9,13)]docosa-1(20),3(22),4,6,9(21),10,12,16,18-nonaen-12-yl]piperazine-1-carboxamidetris(trifluoroacetate)], the “ALK % of inhibition” value in experiment [1] (setting [5]) is listed as 46%. The IC50 in experiment [2] (Table B1) was 0.015 µM; in experiment [3] (Table B1), > 0.2 µM; against TYK2 (Table B1), > 0.2 µM; in experiment [4] (Table B1) it was 0.09 µM.
As for `Clc1cnc2nc1Nc1ccc(Nc3nc4cccnc4o3)c(c1)CCc1cccc(c1)N2` [Example B333, 6-Chloro-N-[1,3]oxazolo[5,4-b]pyridin-2-yl-2,4,8,22-tetraazatetracyclo[14.3.1.1(3,7).1(9,13)]docosa-1(20),3(22),4,6,9(21),10,12,16,18-nonaen-12-amine tris(trifluoroacetate)], the “ALK % of inhibition” value in experiment [1] (percentage inhibition of the example compound at a concentration of 500 nM or 1 mM (not specified which)) stood at 55%. Also, the 50% inhibitory concentration (IC50) amounted to 0.0068 µM in experiment [2] (Table B1), 0.001 µM in experiment [3] (Table B1), 0.0012 µM against TYK2 (Table B1) and 0.015 µM in experiment [4] (Table B1).

What is called IC50 is the concentration that inhibits the measured activity by half.
